Source: US20230054767A1, “COMBINATIONS” (Recurium IP Holdings, LLC, priority 2019, published 2023)

How the values were obtained:
Format in all cases: in vivo
MCF-7 cells [1] = assay: Example 1: MCF-7 xenograft tumor model, Compound A and Compound 5; conditions: BALB/c nude mice, orally once a day for 21 days, Compound A 10 mg/kg, Compound 5 200 mg/kg, alone or combined
Method: Example 1: MCF-7 cells were grown in DMEM Medium supplemented with 15% heat inactivated fetal bovine serum at 37° C. in an atmosphere of 5% CO2 in air. BALB/c nude mice were implanted subcutaneously on the 2nd right mammary fat pad with a single cell suspension of 95% viable tumor cells (1.5×10^7) in 200 μL DMEM Matrigel mixture (1:1 ratio) without serum. When tumors reached approximately 172 mm^3, animals were randomly distributed into treatment groups of 10 animals each and dosed orally, once a day for 21 days as follows: vehicle at the same volume as the single agent treatment; Compound A (alternatively referred to as “Compound (A)” in the specification and figures) at 10 mg/kg; Compound 5 at 200 mg/kg; and the combination treatment of Compound A 10 mg/kg) and Compound 5 (200 mg/kg). In addition, estradiol benzoate injections were given subcutaneously (40 μg/ 20 μL, twice weekly) to all treatment groups. Tumor volumes were evaluated twice per week to calculate tumor volume over time, and mice were weighed twice per week as a surrogate for signs of toxicity. Tumor growth inhibition (TGI) was calculated using the following equation TGI=(1−(Td−T0)/(Cd−C0))×100%. […] The percent tumor regression was calculated using the formula: (1−(Td/T0))×100%.

MCF-7 cells [2] = assay: Example 2: MCF-7 xenograft tumor model, Compound A (5 mg/kg) and Compound 5; conditions: BALB/c nude mice, orally once a day for 24 days, Compound 5 200 mg/kg, alone or combined
Method: (§1) Example 1: MCF-7 cells were grown in DMEM Medium supplemented with 15% heat inactivated fetal bovine serum at 37° C. in an atmosphere of 5% CO2 in air. BALB/c nude mice were implanted subcutaneously on the 2nd right mammary fat pad with a single cell suspension of 95% viable tumor cells (1.5×10^7) in 200 μL DMEM Matrigel mixture (1:1 ratio) without serum. […] Tumor volumes were evaluated twice per week to calculate tumor volume over time, and mice were weighed twice per week as a surrogate for signs of toxicity. […] The percent tumor regression was calculated using the formula: (1−(Td/T0))×100%.
Example 2: MCF-7 cells were grown in DMEM Medium supplemented with 15% heat inactivated fetal bovine serum at 37° C. in an atmosphere of 5% CO2 in air. […] Tumor volumes were evaluated twice per week to calculate tumor volume over time, and mice were weighed twice per week as a surrogate for signs of toxicity. TGI and Tumor regression values were calculated using the equations provided in Example 1. […]

MCF-7 cells [3] = assay: Example 3: MCF-7 xenograft tumor model, Compound A and Compound 6; conditions: BALB/c nude mice, orally once a day for 28 days, Compound A 10 mg/kg, Compound 6 50 mg/kg, alone or combined
Method: as §1
Example 3: MCF-7 cells were grown in DMEM Medium supplemented with 15% heat inactivated fetal bovine serum at 37° C. in an atmosphere of 5% CO2 in air. […] Tumor volumes were evaluated twice per week to calculate tumor volume over time, and mice were weighed twice per week as a surrogate for signs of toxicity. TGI and Tumor regression values were calculated using the equations provided in Example 1.

In the case of `C[C@@H]1Cc2c([nH]c3ccccc23)[C@@H](c2c(F)cc(/C=C/C(=O)O)cc2F)N1C12CC(C1)C2` [Compound A], the “TUMOR REGRESSION % (DAY 21)” value (MCF-7 cells [1]) was 0%, the “TGI % (DAY 21)” value (MCF-7 cells [1]; estradiol benzoate s.c.) was 81% and the “TUMOR REGRESSION % (DAY 24)” value (MCF-7 cells [2]) was 8%. For the same molecule, the “TGI % (DAY 24)” value (MCF-7 cells [2]; estradiol benzoate s.c.) was 108%, the “TUMOR REGRESSION % (DAY 29)” value (MCF-7 cells [3]) was 33% and the “TGI % (DAY 29)” value (MCF-7 cells [3]; estradiol benzoate s.c.) was 120%.
